Data as given in PubChem BioAssay AID504564 (Southern Research Specialized Biocontainment Screening …, 2011).
Activity calls are given as the source filed them. How the calls were made is not given here. Where a SMILES comes first, the peptide text is derived from it.

Assays:
[1] = tested on: M. tuberculosis H37Rv growth inhibition, no glycerol; assay: Mycobacterium tuberculosis H37Rv growth inhibition, absence of glycerol, confirmatory assay (AID 504564); settings: for IC90: 90% growth inhibition concentration
[2] = as above; settings: M. tuberculosis H37Rv growth inhibition, no glycerol; at 25 µM (top of the series)

For `COC(=O)C1CC(=O)N(c2ccc(OCc3ccccc3Cl)cc2)C1` (stereo not given), the IC50 [1] was 340 nM and the IC90 [1] was 2630 nM.
Molecule `CCOC(=O)c1ccc(NC(=O)Cn2ncc(Cl)c(Cl)c2=O)cc1` has an IC50 [1] of 90 nM and an IC90 [1] of 280 nM.
Work on `CCC(C)Nc1ccc(NC(C)CC)cc1` (stereo not given) yielded an IC50 [1] of 590 nM and an IC90 [1] of 990 nM.
With `CC[N+](C)(CC)CCCCOc1ccc2c(c1)C(=O)c1cc(OCCCC[N+](C)(CC)CC)ccc1-2` the IC50 [1] was 700 nM and the IC90 [1] was 1200 nM.
With `COC(=O)c1cc(=O)n(-c2ccc(F)cc2)c(=Nc2ccc(F)cc2)s1` the IC50 [1] was 300 nM and the IC90 [1] was 1100 nM.
`Cc1nn2c(NCc3ccccn3)cc(C(C)C)nc2c1-c1ccccc1` showed an IC50 [1] of 640 nM and an IC90 [1] of 1200 nM.
Work on `CCOC(=O)CNC(=O)[C@H](Cc1ccccc1)NC(=O)OCc1ccccc1` (HELM PEPTIDE1{[O=C(OCc1ccccc1)[*:2]].F.G.[CCO[*:1]]}$$$$V2.0) yielded an IC50 [1] of 1080 nM and an IC90 [1] of 2500 nM.
With `Cc1ccc2c(c1)c(C1=c3ccccc3=NC1=O)c(O)n2C` the IC50 [1] was 490 nM and the IC90 [1] was 1500 nM.
For `Cc1ccc2ccc3ccc(C)nc3c2n1`, the IC50 [1] was 160 nM and the IC90 [1] was 450 nM.
For `COC(=O)c1ccc(CNc2c(N3CCCC3)c(=O)c2=O)cc1`, the growth inhibition [2] was -5.07% (inactive).
For `Cc1cccc(-c2oc3ccc(-c4ccc5c(c4)OCO5)cc3c2C#Cc2cncn2C)c1`, the IC50 [1] was 2220 nM and the IC90 [1] was 2930 nM.
With `O=C1C(Br)=Cc2cccc3cccc1c23` the IC50 [1] was 60 nM and the IC90 [1] was 170 nM.
With `CC(=NCc1ccc2c(c1)OCO2)C1=C(O)c2ccccc2C1=O` the IC50 [1] was 70 nM and the IC90 [1] was 600 nM.
Molecule `S=c1nc[nH]c2nc[nH]c12` has an IC50 [1] of 1030 nM and an IC90 [1] of 1520 nM.
For `Oc1ccccc1/C=N/Nc1ccnc(SCc2ccccc2)n1`, the growth inhibition [2] was 0.48% (inactive).
`O=C(NCC(c1cccs1)N1CCOCC1)c1cc([N+](=O)[O-])cc([N+](=O)[O-])c1` (stereo not given) gave an IC50 [1] of 150 nM and an IC90 [1] of 310 nM.
With `O=C(/C=C\c1cccs1)N1CCN(Cc2ccc3c(c2)OCO3)CC1` the IC50 [1] was 140 nM and the IC90 [1] was 330 nM.
In the case of `CCOC(=O)C(C)Sc1ncnc2c1nnn2-c1ccc(F)cc1` (stereo not given), the IC50 [1] is reported as 450 nM and the IC90 [1] is reported as 4760 nM.
`CCOC1OC(=O)C(Cl)=C1Nc1ccccc1C` (stereo not given) gave an IC50 [1] of 2660 nM and an IC90 [1] of 4410 nM.
With `O=C(CSc1nc2ccccc2c(=O)[nH]1)NCc1ccc(Cl)cc1` the IC50 [1] was 300 nM and the IC90 [1] was 660 nM.
For `COC(=O)C(Nc1nc(SCC(=O)NC2CCCCC2)nc2ccccc12)c1ccccc1` (stereo not given), the growth inhibition [2] was 3.49% (inactive).
`Nc1c(C(=O)NC2CCCCC2)nsc1C(=O)OCC(=O)NC1CCCCC1` showed an IC50 [1] of 450 nM and an IC90 [1] of 1230 nM.
`Cc1cccc(/C=C/C(=O)c2ccc([N+](=O)[O-])o2)c1` showed an IC50 [1] of 20 nM and an IC90 [1] of 20 nM.
For `O=C(CSc1nc2ccccc2c(=O)[nH]1)NC1CCCCC1`, the IC50 [1] was < 10 nM and the IC90 [1] was < 10 nM.
For `CC(C)NC(=O)c1sc(=S)n2c1[nH]c(=O)c1ccc(C(=O)NCCc3ccc(Cl)cc3)cc12`, the IC50 [1] was 210 nM and the IC90 [1] was 430 nM.
Work on `COc1cc(NC(=O)C/C(C)=N/NC(=O)c2ccccn2)c(OC)cc1Cl` yielded an IC50 [1] of 2060 nM and an IC90 [1] of 6770 nM.
`Cc1ccc(C(=O)N/N=C(/CC(=O)c2cccs2)C(F)(F)F)cc1` gave an IC50 [1] of 560 nM and an IC90 [1] of 890 nM.
Molecule `COC(=O)CCc1nc2c(C#N)c(-c3ccc(Cl)cc3)ccn2n1` has an IC50 [1] of 840 nM and an IC90 [1] of 3540 nM.
For `O=C(/C=C/c1ccccc1)N1CCN(CCN2C(=O)c3cccc4cccc(c34)C2=O)CC1`, the IC50 [1] was 1520 nM and the IC90 [1] was 4020 nM.
`c1ccc(/N=C2\N=C(Nc3ccccn3)c3ccccc32)nc1` gave an IC50 [1] of 20 nM and an IC90 [1] of 30 nM.
`CCc1ccc(/C=C2/C(=O)N(C)C(=S)N2CC(=O)OC)s1` showed an IC50 [1] of 460 nM and an IC90 [1] of 1910 nM.
In the case of `Cc1ccc(NC(=O)C2C3/C=C\CCCCC32)cc1C` (stereo not given), the IC50 [1] is reported as 1870 nM and the IC90 [1] is reported as > 25000 nM.
Molecule `Cc1cc(Br)ccc1NC(=O)c1cnc(N2CCN(c3ccccn3)CC2)c2ccccc12` has an IC50 [1] of 850 nM and an IC90 [1] of 2540 nM.
Molecule `CCOC(=O)COn1c2c(c3c4no[n+]([O-])c4ccc31)CCCC2` has an IC50 [1] of 1580 nM and an IC90 [1] of 3040 nM.
In the case of `COC(=O)C(C)Oc1ccc(-c2nccc(-c3ccccn3)n2)cc1` (stereo not given), the IC50 [1] is reported as 1640 nM and the IC90 [1] is reported as 4320 nM.
Work on `CC1CCN(C(=O)C2CCN(c3nnc(-n4cccc4)s3)CC2)CC1` yielded an IC50 [1] of 1150 nM and an IC90 [1] of 2830 nM.
Work on `CNc1nc(SCc2ccccc2Cl)nc2c1CCCC2` yielded an IC50 [1] of 430 nM and an IC90 [1] of 1060 nM.
Work on `Cc1nc(SCC(=O)NC2CCCCC2)[nH]c(=O)c1C` yielded an IC50 [1] of 250 nM and an IC90 [1] of 740 nM.
Molecule `CCOC(=O)COc1ccc(/C=C2\NC(=S)N(CC)C2=O)cc1` has an IC50 [1] of 1680 nM and an IC90 [1] of 4460 nM.
